Laboratory results reported in US12202801B1 (priority 2023, dated 2025).

Tested on: Mycobacterium tuberculosis H37Rv
Test: Resazurin Microplate Assay (REMA), anti-tubercular activity, H37Rv strain
Assay type: cell-based
Settings: 192 h, read-out: Anti-tubercular activity against Mycobacterium tuberculosis (MIC), H37Rv

## N#Cc1ccc(C(=O)C[n+]2ccc(C#N)cc2)cc1.[Br-] [Compound 3f, 4-Cyano-1-(2-(4-cyanophenyl)-2-oxoethyl)pyridin-1-ium bromide]
  MIC: 1 µg/mL
